Counter-ions that a name gives are not always drawn.
Key:
[1] = Stability of aqueous solutions; format: physicochemical
From the text: The feedstock for freeze-drying may be prepared conveniently by, for example, dissolution of paroxetine free base in aqueous hydrochloric acid, although other solid forms of paroxetine hydrochloride may also be dissolved. For example, the feedstock may be prepared by dissolving amorphous paroxetine hydrochloride or a crystalline paroxetine hydrochloride anhydrate, hydrate or solvate in suitable solvent. The solvent used may be pure water or a mixture of water with compatible organic solvents. […] Suitable concentrations of paroxetine hydrochloride for freeze-drying are in the range 1 to 30% by weight, preferably in the range 5% to 20% by weight.
Processing at elevated temperature may be employed to reduce the risk of unwanted crystallisation during processing but is not essential.

[2] = Solubility / dissolution in water; format: physicochemical
From the text: Paroxetine hydrochloride has been described in the literature as a crystalline hemihydrate (see EP-A-0223403 of Beecham Group) and as various crystalline anhydrate forms (see WO96/24595 of SmithKline Beecham plc). These known forms are not ideally suited for all pharmaceutical applications. […] Furthermore, liquids can be dispensed into unit dosages more conveniently and precisely than solids, and the use of liquid feedstocks reduces hazards associated with dust. In addition, the known solid forms of paroxetine hydrochloride are relatively insoluble and are slow to dissolve completely.
The product is homogenous without any further processing and is obtained in 100% yield, a higher yield than is possible in any crystallisation process.

[3] = known forms, well documented in the literature; cited from earlier work

## Fc1ccc([C@@H]2CCNC[C@H]2COc2ccc3c(c2)OCO3)cc1 [paroxetine hydrochloride hemihydrate, Paroxetine hydrochloride hemihydrate]
[1]; highly supersaturated with respect to paroxetine hydrochloride hemihydrate
  stability of aqueous solution of a concentration suitable for freeze-drying: sufficiently stable for sterile filtration and liquid processing

## Fc1ccc([C@@H]2CCNC[C@H]2COc2ccc3c(c2)OCO3)cc1 [freeze-dried paroxetine hydrochloride, paroxetine hydrochloride]
[1]; freeze-dried product dispersed in water, concentration for parenteral dosage, supersaturated with respect to hemihydrate
  stability of reconstituted aqueous solution: sufficiently stable for liquid dispensing
[2]
  dissolution of the freeze-dried product: dissolves quickly and completely

## Fc1ccc([C@@H]2CCNC[C@H]2COc2ccc3c(c2)OCO3)cc1 [paroxetine hydrochloride, (−)trans isomer of 4-(4′-fluorophenyl)-3-(3′,4′-methylenedioxyphenoxymethyl)-piperidine]
[1]; ambient temperature, once dissolved, in the absence of seeds of a crystalline form
  stability of aqueous solution: stable at ambient temperature for many days
[3]
  solubility in water: low solubility in water

Source: patent US20020028942A1, “Novel process and compound” (priority 1997, published 2002)
